Source: ChEMBL document CHEMBL5360612, “Macrocyclic Carbon-Linked Pyrazoles As Novel Inhibitors of MCL-1” (ACS Med Chem Lett, 2023)
pIC50, pKi: −log10 of the molar value. Values after ≈ are worked out from the molar mass of the structure shown. Values joined by “and” are separate entries in the source; they are usually repeats but may differ in a detail not shown here. Identical values can stand only once.

What was measured:
MOLP-8 = experiment: Induction of apoptosis in human MOLP8 cells using luminescent caspase-3/7 as substrate incubated for 2 hrs by Caspase-Glo 3/7 assay; assay type: functional, cell-based; details: MOLP-8, 2 h
[1] = target: Induced myeloid leukemia cell differentiation protein Mcl-1 (Homo sapiens, UniProt Q07820); experiment: Displacement of Cy5-labeled BIM BH3 peptide (H3N-(C/Cy5Mal)-WIAQELRRIGDEFN-OH) from MCL-1 (unknown origin) assessed as inhibition constant incubated for 60 mins by HTRF assay
[2] = Solubility of compound in pH 7 buffer incubated for 3 days by LC-MS/MS analysis; assay type: physicochemical; details: time 3 day
[3] = Solubility of compound in pH 2 buffer incubated for 3 days by LC-MS/MS analysis; assay type: physicochemical; details: time 3 day
[4] = Ratio of AC50 for induction of apoptosis in human MOLP8 cells using luminescent caspase-3/7 as substrate to Ki for displacement of Cy5-labeled BIM BH3 peptide (H3N-(C/Cy5Mal)-WIAQELRRIGDEFN-OH) from MCL-1 (unknown origin) assessed as inhibition constant
[5] = Intrinsic clearance in mouse liver microsomes; assay type: ADME, Microsome; details: read-out: CLH
[6] = Cardiotoxicity in human iPSC-CM assessed as calcium transients at 3 uM by CTCM assay; assay type: toxicity, cell-based
KMS-12-PE [7] = experiment: Induction of apoptosis in human KMS-12-PE cells; assay type: functional, cell-based
Cytochrome P450 2D6 = Cytochrome P450 2D6 (Homo sapiens, UniProt P10635); experiment: Inhibition of recombinant human CYP2D6 by fluorescence microplate reader assay; assay type: ADME
[8] = Cardiotoxicity in human iPSC-CM assessed as calcium transients at 10 uM by CTCM assay; assay type: toxicity, cell-based
Cytochrome P450 1A2 = target: T1, Cytochrome P450 1A2 (Homo sapiens, UniProt P05177); experiment: Inhibition of recombinant human CYP1A2 by fluorescence microplate reader assay; assay type: ADME
T1 sequence (P05177 whole entry): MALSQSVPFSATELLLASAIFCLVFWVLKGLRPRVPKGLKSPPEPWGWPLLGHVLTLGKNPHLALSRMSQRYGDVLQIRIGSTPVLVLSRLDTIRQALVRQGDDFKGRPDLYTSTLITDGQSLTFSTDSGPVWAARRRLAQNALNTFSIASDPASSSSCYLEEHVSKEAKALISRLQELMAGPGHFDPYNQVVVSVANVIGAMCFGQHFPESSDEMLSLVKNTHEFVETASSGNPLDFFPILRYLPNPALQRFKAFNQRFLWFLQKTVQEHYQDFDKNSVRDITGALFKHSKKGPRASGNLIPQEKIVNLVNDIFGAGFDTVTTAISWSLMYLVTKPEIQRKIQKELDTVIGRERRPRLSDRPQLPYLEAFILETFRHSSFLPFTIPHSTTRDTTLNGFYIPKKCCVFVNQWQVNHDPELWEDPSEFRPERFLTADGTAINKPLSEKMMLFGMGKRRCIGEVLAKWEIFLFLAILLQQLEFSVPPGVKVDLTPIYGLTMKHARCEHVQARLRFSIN

[9] = Chromatographic hydrophobicity index, log D of the compound at pH 7.4 by UPLC-TOF analysis; assay type: physicochemical; details: buffer
[10] = Cardiotoxicity in human iPSC-CM assessed as calcium transients at 0.1 uM by CTCM assay; assay type: toxicity, cell-based
[11] = target: Voltage-gated inwardly rectifying potassium channel KCNH2 (Homo sapiens, UniProt Q12809); experiment: […] from human ERG by PatchXpress assay; assay type: toxicity
[12] = Intrinsic clearance in human liver microsomes; assay type: ADME, Microsome; details: read-out: CLH
Cytochrome P450 2C19 = Cytochrome P450 2C19 (Homo sapiens, UniProt P33261); experiment: Inhibition of recombinant human CYP2C19 by fluorescence microplate reader assay; assay type: ADME
Cytochrome P450 2C8 = target: T2, Cytochrome P450 2C8 (Homo sapiens, UniProt P10632); experiment: Inhibition of recombinant human CYP2C8 by fluorescence microplate reader assay; assay type: ADME
T2 sequence (P10632 whole entry): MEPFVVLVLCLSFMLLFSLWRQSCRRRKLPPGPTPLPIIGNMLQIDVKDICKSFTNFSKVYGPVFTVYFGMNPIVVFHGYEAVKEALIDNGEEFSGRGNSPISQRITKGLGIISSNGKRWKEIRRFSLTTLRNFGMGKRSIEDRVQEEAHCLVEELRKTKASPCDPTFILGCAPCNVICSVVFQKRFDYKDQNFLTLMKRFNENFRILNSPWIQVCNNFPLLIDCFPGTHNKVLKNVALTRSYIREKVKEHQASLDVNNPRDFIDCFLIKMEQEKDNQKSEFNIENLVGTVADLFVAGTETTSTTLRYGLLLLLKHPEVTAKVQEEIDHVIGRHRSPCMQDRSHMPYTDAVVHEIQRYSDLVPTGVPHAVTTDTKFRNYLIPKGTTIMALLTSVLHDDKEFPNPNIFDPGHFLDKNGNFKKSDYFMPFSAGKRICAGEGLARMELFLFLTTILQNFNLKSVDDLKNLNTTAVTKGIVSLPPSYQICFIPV

KMS-12-PE [13] = experiment: Induction of apoptosis in MCL-1 knockout human KMS-12-PE cells overexpressing BFL-1; assay type: functional, cell-based
[14] = Cardiotoxicity in human iPSC-CM assessed as calcium transients at 0.3 uM by CTCM assay; assay type: toxicity, cell-based
Cytochrome P450 2C9 = Cytochrome P450 2C9 (Homo sapiens, UniProt P11712); experiment: Inhibition of recombinant human CYP2C9 by fluorescence microplate reader assay; assay type: ADME
[15] = Cardiotoxicity in human iPSC-CM assessed as calcium transients at 1 uM by CTCM assay; assay type: toxicity, cell-based
Cytochrome P450 3A4 = Cytochrome P450 3A4 (Homo sapiens, UniProt P08684); experiment: Inhibition of recombinant human CYP3A4 by fluorescence microplate reader assay; assay type: ADME
Sequence of Cytochrome P450 3A4 (P08684 whole entry): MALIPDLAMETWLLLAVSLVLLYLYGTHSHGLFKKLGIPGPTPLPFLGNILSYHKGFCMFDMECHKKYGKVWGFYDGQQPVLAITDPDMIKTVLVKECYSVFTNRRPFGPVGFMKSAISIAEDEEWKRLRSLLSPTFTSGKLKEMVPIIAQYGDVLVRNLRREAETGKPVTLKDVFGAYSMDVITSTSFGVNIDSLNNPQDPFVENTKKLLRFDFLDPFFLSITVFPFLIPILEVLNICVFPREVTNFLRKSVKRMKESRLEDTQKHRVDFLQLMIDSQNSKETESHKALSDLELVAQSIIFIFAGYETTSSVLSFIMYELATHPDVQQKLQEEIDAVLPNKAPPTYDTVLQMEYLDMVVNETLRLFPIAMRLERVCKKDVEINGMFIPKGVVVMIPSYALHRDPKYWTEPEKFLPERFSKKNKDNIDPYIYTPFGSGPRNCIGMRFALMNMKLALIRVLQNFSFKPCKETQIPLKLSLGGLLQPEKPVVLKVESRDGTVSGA

Sequence of Induced myeloid leukemia cell differentiation protein Mcl-1 (Q07820 whole entry): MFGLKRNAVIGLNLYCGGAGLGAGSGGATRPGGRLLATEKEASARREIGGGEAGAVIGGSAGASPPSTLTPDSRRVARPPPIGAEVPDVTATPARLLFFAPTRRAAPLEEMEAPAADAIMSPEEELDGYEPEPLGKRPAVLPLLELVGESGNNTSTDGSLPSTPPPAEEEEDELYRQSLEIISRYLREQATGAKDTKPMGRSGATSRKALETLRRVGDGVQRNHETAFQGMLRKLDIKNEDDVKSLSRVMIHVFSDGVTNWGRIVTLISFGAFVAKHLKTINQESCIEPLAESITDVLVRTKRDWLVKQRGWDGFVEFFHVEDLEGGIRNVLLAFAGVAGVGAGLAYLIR
Sequence of Cytochrome P450 2C19 (P33261 whole entry): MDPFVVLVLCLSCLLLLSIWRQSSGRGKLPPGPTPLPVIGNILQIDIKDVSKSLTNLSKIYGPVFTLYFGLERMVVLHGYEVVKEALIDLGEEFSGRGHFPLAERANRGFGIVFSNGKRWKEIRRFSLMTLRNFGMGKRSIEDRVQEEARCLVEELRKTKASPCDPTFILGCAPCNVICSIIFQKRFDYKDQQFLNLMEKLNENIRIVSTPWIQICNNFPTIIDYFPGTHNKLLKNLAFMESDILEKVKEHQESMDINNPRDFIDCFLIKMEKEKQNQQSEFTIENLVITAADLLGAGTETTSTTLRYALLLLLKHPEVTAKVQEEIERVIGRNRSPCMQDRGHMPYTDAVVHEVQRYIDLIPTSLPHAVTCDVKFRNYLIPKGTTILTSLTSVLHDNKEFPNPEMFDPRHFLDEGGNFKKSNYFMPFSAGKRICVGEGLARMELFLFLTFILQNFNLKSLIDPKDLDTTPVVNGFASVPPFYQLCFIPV
Sequence of Cytochrome P450 2D6 (P10635 whole entry): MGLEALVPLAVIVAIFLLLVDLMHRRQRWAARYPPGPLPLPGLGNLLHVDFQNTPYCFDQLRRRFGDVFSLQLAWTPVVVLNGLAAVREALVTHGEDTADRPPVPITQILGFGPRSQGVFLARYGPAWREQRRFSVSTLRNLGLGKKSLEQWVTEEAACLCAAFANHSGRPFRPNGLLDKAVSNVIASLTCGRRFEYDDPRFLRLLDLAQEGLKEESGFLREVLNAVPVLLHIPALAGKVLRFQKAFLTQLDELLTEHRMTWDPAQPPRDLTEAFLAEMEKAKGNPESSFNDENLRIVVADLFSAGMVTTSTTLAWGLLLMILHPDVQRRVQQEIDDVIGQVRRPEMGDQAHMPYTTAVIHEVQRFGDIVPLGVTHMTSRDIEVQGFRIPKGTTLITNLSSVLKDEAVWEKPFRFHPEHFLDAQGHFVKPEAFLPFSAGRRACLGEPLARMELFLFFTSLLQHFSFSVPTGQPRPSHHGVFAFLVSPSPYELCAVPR
Sequence of Cytochrome P450 2C9 (P11712 whole entry): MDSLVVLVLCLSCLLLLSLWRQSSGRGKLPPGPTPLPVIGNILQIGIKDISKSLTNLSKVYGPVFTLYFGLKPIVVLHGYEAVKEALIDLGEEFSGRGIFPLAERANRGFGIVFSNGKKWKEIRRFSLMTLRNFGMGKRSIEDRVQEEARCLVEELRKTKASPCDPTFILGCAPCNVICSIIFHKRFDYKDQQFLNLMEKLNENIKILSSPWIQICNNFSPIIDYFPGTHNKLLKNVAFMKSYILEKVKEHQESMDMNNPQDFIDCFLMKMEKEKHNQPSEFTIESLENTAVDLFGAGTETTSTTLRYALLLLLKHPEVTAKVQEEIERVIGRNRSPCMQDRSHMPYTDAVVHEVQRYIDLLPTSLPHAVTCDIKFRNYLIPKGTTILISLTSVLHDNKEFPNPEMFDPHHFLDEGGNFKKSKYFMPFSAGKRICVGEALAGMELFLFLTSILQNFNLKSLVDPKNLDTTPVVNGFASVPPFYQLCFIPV
Sequence of Voltage-gated inwardly rectifying potassium channel KCNH2 (Q12809 whole entry): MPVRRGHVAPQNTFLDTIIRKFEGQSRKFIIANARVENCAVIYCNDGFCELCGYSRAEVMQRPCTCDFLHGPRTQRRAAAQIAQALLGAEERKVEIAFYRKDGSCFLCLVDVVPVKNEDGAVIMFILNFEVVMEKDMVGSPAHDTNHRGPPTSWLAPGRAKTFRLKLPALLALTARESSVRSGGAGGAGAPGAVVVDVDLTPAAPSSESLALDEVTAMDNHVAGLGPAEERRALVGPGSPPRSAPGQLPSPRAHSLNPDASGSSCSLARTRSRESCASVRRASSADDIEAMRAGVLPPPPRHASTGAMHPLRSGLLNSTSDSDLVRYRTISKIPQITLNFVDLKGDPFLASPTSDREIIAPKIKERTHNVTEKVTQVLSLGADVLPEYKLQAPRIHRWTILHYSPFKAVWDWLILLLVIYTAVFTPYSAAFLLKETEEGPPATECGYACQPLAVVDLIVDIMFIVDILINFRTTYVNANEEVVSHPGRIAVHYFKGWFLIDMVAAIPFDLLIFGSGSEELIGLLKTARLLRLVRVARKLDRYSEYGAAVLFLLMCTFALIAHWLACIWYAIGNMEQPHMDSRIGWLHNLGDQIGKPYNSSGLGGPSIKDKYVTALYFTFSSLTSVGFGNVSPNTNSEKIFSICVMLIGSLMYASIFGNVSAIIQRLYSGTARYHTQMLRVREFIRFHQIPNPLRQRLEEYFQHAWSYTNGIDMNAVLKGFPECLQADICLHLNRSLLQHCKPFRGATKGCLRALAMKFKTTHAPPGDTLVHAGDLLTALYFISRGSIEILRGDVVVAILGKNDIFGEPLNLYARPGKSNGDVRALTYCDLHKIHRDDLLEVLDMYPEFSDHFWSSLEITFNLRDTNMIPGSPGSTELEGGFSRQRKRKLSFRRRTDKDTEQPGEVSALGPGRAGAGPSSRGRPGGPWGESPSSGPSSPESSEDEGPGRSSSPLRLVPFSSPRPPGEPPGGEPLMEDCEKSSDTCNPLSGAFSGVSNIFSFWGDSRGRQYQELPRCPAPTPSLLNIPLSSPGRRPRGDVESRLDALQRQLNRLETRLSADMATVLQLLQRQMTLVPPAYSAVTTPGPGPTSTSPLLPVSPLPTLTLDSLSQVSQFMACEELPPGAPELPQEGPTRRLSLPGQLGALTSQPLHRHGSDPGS

SMILES | pKi [1] | solubility at 72 h [2] | solubility at 72 h [3] | AC50 (MOLP-8) | Ratio [4] | also measured
COCCOCCn1nc(C)c2c1CSCc1cc(n(C)n1)CCc1cc(c3ccc(F)cc3c1)OCCCn1c(C(=O)O)c(C)c3c-2c(Cl)ccc31 |  |  |  | 12 nM |  | 
COCCOCCc1nn(C)c2c1CSCc1cc(n(C)n1)CCc1cc(c3ccc(F)cc3c1)OCCCc1c(C(=O)O)n(C)c3c-2c(Cl)ccc13 | 10.89 | 460 µM (≈ 350 µg/mL) | < 0.29 µM | 16 nM | 1230 | 
Cn1nc2cc1CCc1cc(c3ccc(F)cc3c1)OCCCc1c(C(=O)O)[nH]c3c(c(Cl)ccc13)-c1c(cnn1C)CSC2 | 10.33 |  |  | 202 nM | 4300 | 
Cn1nc2cc1CSc1cc(c3ccccc3c1)OCCCc1c(C(=O)O)n(C)c3c(c(Cl)ccc13)-c1c(cnn1C)CSC2 |  | < 0.49 µM | < 0.55 µM |  | 738 and >900 | 
COCCOCc1nn(C)c2c1CSCc1cc(n(C)n1)CCc1cc(c3ccccc3c1)OCCCc1c(C(=O)O)n(C)c3c-2c(Cl)ccc13 | 10.64 | 590 µM (≈ 430 µg/mL) | < 0.06 µM | 43 nM | 1870 | 
Cc1nn(C)c2c1CSCc1cc(n(C)n1)CSc1cc(c3ccccc3c1)OCCCc1c(C(=O)O)n(C)c3c-2c(Cl)ccc13 | 10.40 | 9.7 µM (≈ 6.52 µg/mL) | < 0.27 µM | 54 nM | 1350 | 
CN(C)CCn1c(C(=O)O)c2c3ccc(Cl)c(c31)-c1c(cnn1C)CSCc1cc(n(C)n1)CCc1cc(c3ccc(F)cc3c1)OCCC2 | 10.47 |  |  | 120 nM | 3530 | 
COCCn1c(C(=O)O)c2c3ccc(Cl)c(c31)-c1c(cnn1C)CSCc1cc(n(C)n1)CCc1cc(c3ccc(F)cc3c1)OCCC2 | 10.66 | 10.4 µM (≈ 7.3 µg/mL) | < 0.02 µM | 43 nM | 1954 | 

Further lines, with some results ahead:

pKi [1] | solubility at 72 h [2] | solubility at 72 h [3] | SMILES | AC50 (MOLP-8) | Ratio [4] | also measured
10.49 | 210 µM | < 0.04 µM | Cc1nn(C)c2c1CSCc1cc(n(C)n1)CCc1cc(c3ccccc3c1)OCCCc1c(C(=O)[O-])n(C)c3c-2c(Cl)ccc13.[Na+] | 45 nM | 1406 | 
10.74 | 580 µM (≈ 433 µg/mL) | < 0.02 µM | COCCOCc1nn(C)c2c1CSCc1cc(n(C)n1)CCc1cc(c3ccc(F)cc3c1)OCCCc1c(C(=O)O)n(C)c3c-2c(Cl)ccc13 | 14 nM | 777 | microsomal CLint [5]: 157 µL/min/mg; Activity [6]: Non-Toxic; AC50 (KMS-12-PE [7]): 111 nM; pIC50 (Cytochrome P450 2D6): < 4.70; Activity [8]: Non-Toxic; pIC50 (Cytochrome P450 1A2): < 4.70; chromatographic logD [9]: 2.49; Activity [10]: Non-Toxic; pIC50 [11]: < 4.52; microsomal CLint [12]: 48 µL/min/mg; pIC50 (Cytochrome P450 2C19): < 4.70; pIC50 (Cytochrome P450 2C8): 5.02; AC50 (KMS-12-PE [13]): > 30000 nM; Activity [14]: Non-Toxic; pIC50 (Cytochrome P450 2C9): 4.72; Activity [15]: Non-Toxic; pIC50 (Cytochrome P450 3A4): < 4.70
10.70 | 550 µM (≈ 417 µg/mL) | 580 µM (≈ 439 µg/mL) | Cn1nc2cc1CCc1cc(c3ccc(F)cc3c1)OCCCc1c(C(=O)O)n(CCN3CCOCC3)c3c(c(Cl)ccc13)-c1c(cnn1C)CSC2 | 76 nM | 3800 | microsomal CLint [5]: 24 µL/min/mg; Activity [6]: Non-Toxic; AC50 (KMS-12-PE [7]): 407 nM; pIC50 (Cytochrome P450 2D6): 4.98; Activity [8]: Non-Toxic; pIC50 (Cytochrome P450 1A2): < 4.70; chromatographic logD [9]: 2.53; Activity [10]: Non-Toxic; pIC50 [11]: < 4.52; microsomal CLint [12]: 43 µL/min/mg; pIC50 (Cytochrome P450 2C19): < 4.70; pIC50 (Cytochrome P450 2C8): 5.25; AC50 (KMS-12-PE [13]): > 30000 nM; Activity [14]: Non-Toxic; pIC50 (Cytochrome P450 2C9): < 4.70; Activity [15]: Non-Toxic; pIC50 (Cytochrome P450 3A4): 5.02
10.39 | 550 µM | < 0.03 µM | Cc1nn(C)c2c1CSCc1cc(n(C)n1)CCc1cc(c3ccc(F)cc3c1)OCCCc1c(C(=O)[O-])n(C)c3c-2c(Cl)ccc13.[Na+] | 10 nM | 243 | 
10.70 | 520 µM (≈ 388 µg/mL) | < 0.23 µM | COCCOCCn1c(C(=O)O)c2c3ccc(Cl)c(c31)-c1c(cnn1C)CSCc1cc(n(C)n1)CCc1cc(c3ccc(F)cc3c1)OCCC2 | 52 nM | 2600 | 
